Results published in the supplement of paper PMC6045584.
± gives the standard deviation of the averaged measurements.

Assays:
[1] = compound: O=C(O)C1(C(=O)O)CCC1.[NH2-].[NH2-].[Pt+2] [CARBOPLATIN]; assay: area under dose-response curve of surviving fraction (unscaled, Aref=0) (surviving fraction x log10(nM)); higher = more resistant; details: exposure time: 5 days; dose range 0.5-1000 nM
Outline: (§1)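 Tumour cell lines in 384-well plates were exposed to eight inhibitor concentrations, from 0.5 to 1000 nM, for five days, and viability was read by CellTiter-Glo luminescence in three screens per line. Signals were normalised to DMSO-only wells, and 3-parameter logistic regression in the drc R package fitted dose-response survival curves to the surviving fractions. Area under the curve is given as the unscaled activity area. That area is taken over log10 dose with Aref = 0.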

[2] = compound: Cc1ccc(-c2cc(C(F)(F)F)nn2-c2ccc(S(N)(=O)=O)cc2)cc1 [CELECOXIB]; assay: as above; details: exposure time: 5 days; dose range 0.5-1000 nM
Outline: as §1

[3] = compound: COCC[n+]1c2c(n(Cc3cnccn3)c1C)C(=O)c1ccccc1C2=O [YM155]; assay: as above; details: exposure time: 5 days; dose range 0.5-1000 nM
Outline: as §1

[4] = compound: COc1cc2ncnc(Nc3ccc(F)c(Cl)c3)c2cc1OCCCN1CCOCC1 [GEFITINIB]; assay: as above; details: exposure time: 5 days; dose range 0.5-1000 nM
Outline: as §1

[5] = compound: T1, CC[C@@]1(O)C(=O)OCc2c1cc1n(c2=O)Cc2cc3ccccc3nc2-1 [CAMPTOTHECIN]; assay: as above; details: exposure time: 5 days; dose range 0.5-1000 nM
Outline: as §1

[6] = compound: CC(=O)c1c(C)c2cnc(Nc3ccc(N4CCNCC4)cn3)nc2n(C2CCCC2)c1=O; assay: as above; details: exposure time: 5 days; dose range 0.5-1000 nM
Outline: as §1

[7] = compound: CC(=O)O[C@H]1C(=O)[C@@]2(C)[C@H]([C@H](OC(=O)c3ccccc3)[C@]3(O)C[C@H](OC(=O)[C@H](O)[C@@H](NC(=O)c4ccccc4)c4ccccc4)C(C)=C1C3(C)C)[C@]1(OC(C)=O)CO[C@@H]1C[C@@H]2O [PACLITAXEL]; assay: as above; details: exposure time: 5 days; dose range 0.5-1000 nM
Outline: as §1

[8] = compound: CC(=O)NCC(=O)N1[C@@H]2CC[C@H]1c1ccc(Nc3ncc(C(F)(F)F)c(NC4CCC4)n3)cc12; assay: as above; details: exposure time: 5 days; dose range 0.5-1000 nM
Outline: as §1

[9] = compound: C[C@]1(O)C[C@@H](c2nc(-c3ccc4ccc(-c5ccccc5)nc4c3)c3c(N)nccn32)C1 [OSI-906]; assay: as above; details: exposure time: 5 days; dose range 0.5-1000 nM
Outline: as §1

[10] = compound: T1, CAMPTOTHECIN; assay: surviving fraction relative to DMSO-only wells; higher = less growth inhibition; details: exposure time: 5 days
Outline: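 Each tumour cell line was screened three times, and only lines with replicate Pearson r >0.7 and median Z' >0.3 were kept. Cells in log phase were seeded at 250–500 per well in 384-well plates, left 24 hours, then exposed continuously for five days to inhibitors at 0.5, 1, 5, 10, 50, 100, 500 and 1000 nM. Viability was read as CellTiter-Glo luminescence, with surviving fraction normalised to the median of DMSO-only wells.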

Test System | area under dose-response curve [1] | area under dose-response curve [2] | area under dose-response curve [3] | area under dose-response curve [4] | area under dose-response curve [5] | area under dose-response curve [6] | area under dose-response curve [7] | area under dose-response curve [8] | area under dose-response curve [9] | surviving fraction ([10]; 0.5 nM) | surviving fraction ([10]; 1 nM) | surviving fraction ([10]; 5 nM) | surviving fraction ([10]; 10 nM) | surviving fraction ([10]; 50 nM) | surviving fraction ([10]; 100 nM) | surviving fraction ([10]; 500 nM) | surviving fraction ([10]; 1000 nM)
JIMT1 BREAST | 3.31 | 3.51 | 1.39 | 3.29 | 1.8 | 3.35 | 0.48 | 2.96 | 3.15 | 0.894 ± 0.018 | 0.893 ± 0.058 | 0.8377 ± 0.0059 | 0.655 ± 0.048 | 0.433 ± 0.024 | 0.394 ± 0.034 | 0.066 ± 0.0031 | 0.0517 ± 0.0014
SCC90 HEADNECK | 3.68 | 3.43 | 2.17 | 2.63 | 1.77 | 3.7 | 1.1 | 2.52 | 3.1 | 0.823 ± 0.035 | 0.879 ± 0.043 | 0.904 ± 0.058 | 0.75 ± 0.046 | 0.343 ± 0.056 | 0.253 ± 0.032 | 0.04 ± 0.0076 | 0.0327 ± 0.0051
C33A CERVIX | 4.12 | 3.25 | 0.324 | 2.98 | 1.24 | 3.67 | 0.98 | 2.24 | 3.42 | 0.863 ± 0.019 | 0.868 ± 0.074 | 0.654 ± 0.1 | 0.423 ± 0.024 | 0.126 ± 0.03 | 0.0787 ± 0.0078 | 0.0317 ± 0.0032 | 0.0383 ± 0.016
CASKI CERVIX | 3.19 | 3.15 | 1.37 | 2.15 | 1.07 | 3.41 | 0.492 | 2.28 | 2.98 | 0.798 ± 0.11 | 0.821 ± 0.062 | 0.575 ± 0.054 | 0.38 ± 0.035 | 0.0697 ± 0.0057 | 0.0273 ± 0.00058 | 0.018 | 0.0217 ± 0.0011
